In brackets after ≈: the same amount, converted by molar mass.
Legend:
Assay type in all cases: cell-based
[1] = system: Chloroquine sensitive (CQS) P. falciparum strain; assay: Schizont maturation inhibition (SMI), chloroquine sensitive strain; conditions: Plasmodium falciparum, schizont maturation inhibition determined after 24 hr
Procedure: (§1) Parasites were cultured in O (+) erythrocytes in RPMI-1640 media supplemented with 25 mM HEPES buffer and 10% AB (+) serum by candlejar technique.^9 Initial culture was maintained in small vials (2.5 cm dia.) with 10% haematocrit, i.e. 10 μl erythrocytes containing 1.5% ring stage parasite in 100 μl complete media. The culture volume per well for the assay was 100 μl. Parasitamia was determined for each set of culture, number of parasites for the assay were adjusted at 1 to 1.5% by diluting with fresh O (+) RBC. Assay was done in 96 well microtitre flat-bottomed tissue culture plates. Parasite culture was synchronized at ring forms using density gradient method^10 and cultured for 24 h. in the presence of various doses of compounds and chloroquine for their effect in schizont maturation. Test was done in duplicate wells for each dose of the drugs. Control culture was done with RPMI-164 containing 10% AB (+) serum. Growth of the parasites from duplicate wells of each concentration was monitored in JSB stained^11 blood smears by counting number of schizont per 200 asexual parasites. Percent schizont maturation inhibition was calculated by the formula: (1−Nt/Nc)×100 where, Nt and Nc represent the number of schizont in the test and control well respectively.

[2] = system: Chloroquine resistant (CQR) P. falciparum strain; assay: Schizont maturation inhibition (SMI), chloroquine resistant strain; conditions: Plasmodium falciparum, schizont maturation inhibition determined after 24 hr
Procedure: as §1

[3] = system: Chloroquine sensitive (CQS) P. falciparum strain; assay: Total parasite growth inhibition (PGI), chloroquine sensitive strain; conditions: Plasmodium falciparum, total parasite growth inhibition determined after 48 hr
[4] = system: Chloroquine resistant (CQR) P. falciparum strain; assay: Total parasite growth inhibition (PGI), chloroquine resistant strain; conditions: Plasmodium falciparum, total parasite growth inhibition determined after 48 hr

Compound | IC50 [1] | IC90 [1] | IC50 [2] | IC90 [2] | IC50 [3] | IC90 [3] | IC50 [4] | IC90 [4]
C=C(C#N)C(O)c1cc(-c2ccccc2)cnc1Cl (stereo not drawn) [Ic, 2-[(2-Chloro-5-phenylpyridine-3-yl)(hydroxy)methyl]acrylonitrile] | 3.6 µg/mL (≈ 13.3 µM) | 25.5 µg/mL (≈ 94.2 µM) | 0.9 µg/mL (≈ 3.32 µM) | 1.5 µg/mL (≈ 5.54 µM) | 8 µg/mL (≈ 29.6 µM) | 23 µg/mL (≈ 85 µM) | 2.2 µg/mL (≈ 8.13 µM) | 6.75 µg/mL (≈ 24.9 µM)
C=C(C#N)C(O)c1cc(C)cnc1Cl (stereo not drawn) [Ia, 2-[(2-Chloro-5-methylpyridine-3-yl)(hydroxy)methyl]acrylonitrile] | 1.25 µg/mL (≈ 5.99 µM) | 25.5 µg/mL (≈ 122 µM) | 22.5 µg/mL (≈ 108 µM) | 125 µg/mL (≈ 599 µM) | 1.3 µg/mL (≈ 6.23 µM) | 85 µg/mL (≈ 407 µM) | 10.5 µg/mL (≈ 50.3 µM) | 300 µg/mL (≈ 1440 µM)
C=C(C(=O)OC)C(O)c1cc(C)cnc1Cl (stereo not drawn) [Ie, Methyl 2-[(2-chloro-5-methylpyridine-3-)(hydroxy)methyl]acrylate] | 18 µg/mL (≈ 74.5 µM) | 32 µg/mL (≈ 132 µM) | 3.05 µg/mL (≈ 12.6 µM) | 7 µg/mL (≈ 29 µM) | 28.5 µg/mL (≈ 118 µM) | 115 µg/mL (≈ 476 µM) | 5.75 µg/mL (≈ 23.8 µM) | 27.5 µg/mL (≈ 114 µM)
C=C(C(=O)OC)C(O)c1cc(-c2ccccc2)cnc1Cl (stereo not drawn) [If, Methyl 2-[(2-chloro-5-phenylpyridine-3-yl)(hydroxy)methyl]acrylate] | 45 µg/mL (≈ 148 µM) | 125 µg/mL (≈ 412 µM) | 5 µg/mL (≈ 16.5 µM) | 30 µg/mL (≈ 98.8 µM) | 115 µg/mL (≈ 379 µM) | 350 µg/mL (≈ 1150 µM) | 10.8 µg/mL (≈ 35.4 µM) | 77.5 µg/mL (≈ 255 µM)
C=C(C#N)C(O)c1cc(CC)cnc1Cl (stereo not drawn) [Ib, 2-[(2-Chloro-5-ethylpyridine-3-yl)(hydroxy)methyl]acrylonitrile] | 1.8 µg/mL (≈ 8.08 µM) | 15.5 µg/mL (≈ 69.6 µM) | 2.5 µg/mL (≈ 11.2 µM) | 6.5 µg/mL (≈ 29.2 µM) | 4 µg/mL (≈ 18 µM) | 31 µg/mL (≈ 139 µM) | 5.5 µg/mL (≈ 24.7 µM) | 26 µg/mL (≈ 117 µM)
C=C(C#N)C(O)c1ccc(C(=O)OC)nc1Cl (stereo not drawn) [Id, Methyl 6-chloro-5-(2-cyano-1-hydroxyallyl) 2-pyridine carboxylate] | 3.4 µg/mL (≈ 13.5 µM) | 22 µg/mL (≈ 87.1 µM) | 5.75 µg/mL (≈ 22.8 µM) | 25.5 µg/mL (≈ 101 µM) | 7 µg/mL (≈ 27.7 µM) | 29 µg/mL (≈ 115 µM) | 6.75 µg/mL (≈ 26.7 µM) | 29 µg/mL (≈ 115 µM)

Reference: patent US7666883B2, “Antimalarial Baylis-Hillman adducts and a process for the preparation thereof” (Council of Scientific and Industrial Research, priority 2005, dated 2010)
